Laboratory results as given in ChEMBL document CHEMBL6134780, “Halogenated retinoid derivatives as dual RARα and RXRα modulators for treating acute promyelocytic leukemia cells” (Eur J Med Chem, 2024).
The source made the active and inactive calls. The calls are words filed in the database; no cut-off is given here.

Key:
Assay type in all cases: cell-based
[1] = target: T1, Retinoic acid receptor beta (Homo sapiens) (UniProt P10826); test: Agonist activity at full length RARbeta LBD (unknown origin) transfected in HEK293T cells co-transfected with pG5luc reporter and Renilla-luc at 1 uM incubated for 12 hrs by luciferase reporter gene assay; details: filed as agonist
T1 sequence (whole entry): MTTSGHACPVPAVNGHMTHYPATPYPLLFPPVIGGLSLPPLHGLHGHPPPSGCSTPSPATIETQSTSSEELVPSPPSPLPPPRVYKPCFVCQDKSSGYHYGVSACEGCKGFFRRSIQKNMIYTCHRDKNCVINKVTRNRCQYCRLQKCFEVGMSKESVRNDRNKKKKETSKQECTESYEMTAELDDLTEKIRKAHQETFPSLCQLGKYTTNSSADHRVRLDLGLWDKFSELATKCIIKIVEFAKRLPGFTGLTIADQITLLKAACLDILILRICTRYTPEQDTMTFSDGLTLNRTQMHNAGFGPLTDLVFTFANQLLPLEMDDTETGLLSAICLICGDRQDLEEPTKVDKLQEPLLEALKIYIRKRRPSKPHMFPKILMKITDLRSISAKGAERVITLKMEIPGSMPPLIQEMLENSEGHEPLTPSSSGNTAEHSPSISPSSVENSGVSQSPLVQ

[2] = target: T2, Retinoic acid receptor alpha (Homo sapiens) (UniProt P10276); test: Agonist activity at full length RARalpha LBD (unknown origin) transfected in HEK293T cells co-transfected with pG5luc reporter and Renilla-luc at 1 uM incubated for 12 hrs by luciferase reporter gene assay; details: filed as agonist
T2 sequence (whole entry): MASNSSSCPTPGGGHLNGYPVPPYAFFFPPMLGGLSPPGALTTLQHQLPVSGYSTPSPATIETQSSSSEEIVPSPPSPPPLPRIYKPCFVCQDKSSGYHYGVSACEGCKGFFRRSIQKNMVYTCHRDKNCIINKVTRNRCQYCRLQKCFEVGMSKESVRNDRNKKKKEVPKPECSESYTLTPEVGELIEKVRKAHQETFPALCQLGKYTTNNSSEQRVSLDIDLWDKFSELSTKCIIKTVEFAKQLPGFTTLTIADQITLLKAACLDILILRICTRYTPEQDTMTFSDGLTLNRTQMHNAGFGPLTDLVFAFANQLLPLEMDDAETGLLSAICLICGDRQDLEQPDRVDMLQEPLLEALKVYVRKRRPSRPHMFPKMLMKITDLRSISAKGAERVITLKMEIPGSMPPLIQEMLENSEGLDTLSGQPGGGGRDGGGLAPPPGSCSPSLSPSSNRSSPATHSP

[3] = target: T3, Retinoic acid receptor gamma (Homo sapiens) (UniProt P13631); test: Agonist activity at full length RARgamma LBD (unknown origin) transfected in HEK293T cells co-transfected with pG5luc reporter and Renilla-luc at 1 uM incubated for 12 hrs by luciferase reporter gene assay; details: filed as agonist
T3 sequence (whole entry): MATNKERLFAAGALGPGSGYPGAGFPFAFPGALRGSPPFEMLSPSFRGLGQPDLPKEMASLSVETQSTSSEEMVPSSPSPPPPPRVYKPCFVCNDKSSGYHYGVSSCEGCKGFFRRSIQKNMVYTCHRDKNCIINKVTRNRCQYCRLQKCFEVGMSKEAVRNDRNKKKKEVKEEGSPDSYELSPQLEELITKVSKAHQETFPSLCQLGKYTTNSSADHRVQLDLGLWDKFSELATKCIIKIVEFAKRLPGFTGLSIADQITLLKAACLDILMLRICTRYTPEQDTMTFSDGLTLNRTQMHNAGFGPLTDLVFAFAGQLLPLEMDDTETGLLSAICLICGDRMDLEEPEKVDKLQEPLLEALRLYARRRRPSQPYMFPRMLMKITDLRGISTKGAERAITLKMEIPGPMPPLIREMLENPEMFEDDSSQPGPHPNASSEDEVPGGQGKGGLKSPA

[4] = target: T2, Retinoic acid receptor alpha (Homo sapiens); test: Agonist activity at full length RARalpha LBD (unknown origin) transfected in HEK293T cells co-transfected with pG5luc reporter and Renilla-luc assessed as transactivation at 0.5 to 1 uM incubated for 12 hrs by luciferase reporter gene assay; details: filed as agonist, dose 0.5-1 µM

SMILES	Activity [1]	Activity [2]	Activity [3]	Activity [4]
Cc1cc2c(cc1C(=O)/C=C/c1ccc(C(=O)O)cc1)C(C)(C)CCC2(C)C	Active; Poor Subtype Selectivity Observed	Active	Active; Poor Subtype Selectivity Observed	
Cc1cc2c(cc1C(=O)/C(I)=C\c1ccc(C(=O)O)cc1)C(C)(C)CCC2(C)C				Active
